We go through twelve compounds from patent EP1001774B1, “USE OF PHOSPHOLAMBAN INHIBITORS FOR INCREASING CORONARY FLOW” (ORION CORPORATION, priority 1997, dated 1999).

The subject of assay [1] is SR Ca^2+-ATPase. Kind of assay: Calcium uptake assay (fluo-3) in SR vesicles from fast skeletal muscle (psoas m.), which contain no phospholamban. In kind it is biochemical, guinea-pig. To be noted: vesicles from fast skeletal muscle, 0.04 µM free calcium. The text has this: (§1) The direct binding of a compound to the phospholamban protein can be ascertained by the circular dichroism (CD) spectroscopy. The methods for determining whether a compound relieves the inhibitory effect of phospholamban on SR Ca^2+-ATPase by direct binding to the phospholamban protein, i.e. is a phospholamban inhibitor, are illustrated in detail in the experimental section.
(§2) The effect on phospholamban of the compounds used in the invention was verified by measuring its effects on calcium uptake into the SR vesicles prepared from cardiac tissue and into vesicles prepared from fast skeletal muscle (psoas m.). […] The methods are described below in detail.
(§3) Guinea pigs (10-12) were decapited. Their hearts or the psoas muscles were excised, washed in ice-cold 0.9 % NaCl and cut into pieces in a buffer containing 20 mM Tris-maleate, 0.3 M sucrose, pH 7.0. Thereafter tissue pieces were homogenized with Polytron and further with Potter (10 strokes). The homogenate was centrifugated at 1000 g for 15 min at 4 °C. The supernatant was collected and the pellet was resuspended into 5 ml of the buffer (20 mM Tris-maleate, 0.3 M sucrose, pH 7.0) and recentrifugated at 1000 g for 10 min at 4 °C. The obtained supernatant was combined with the earlier collected supernatant and centrifugated once again at 10 000 g for 20 min at 4 °C. The final supernatant was filtered into a bottle equipped with a magnetic stirrer. KCl was added to the filtered supernatant to achieve the final concentration of 0.6 M (at 4 °C). The obtained solution was centrifugated at 100 000 g for 60 min at 4 °C. The pellet was suspended in 5 ml of the buffer containing 20 mM Tris-maleate, 0.3 M sucrose, pH 7.0 and centrifugated at 100 000 g for 60 min at 4 °C. The obtained pellet was suspended in 5 ml of buffer containing 20 mM Tris-maleate, 0.3 M sucrose, 0.1 M KCI, pH 7.0 and stored at -80 °C until use. The protein concentration was also measured in order to standardise the separately prepared vesicle preparations.
(§4) In the calcium uptake assay, the fluorescent indicator, fluo-3 was used to detect the decrease of the extravesicular Ca^2+-concentration, when the SR Ca^2+ATPase was transferring Ca^2+ from the extravesicular space into the SR-vesicles.
(§5) The SR-vesicles obtained above (50 µg protein/ml) were preincubated with or without the test compound at 37 °C for 5 min in the assay buffer containing 40 mM imidazole, 95 mM KCI, 5 mM NaN3, 5 mM MgCl2, 0.5 mM EGTA, 5 mM potassium oxalate, 2 µM ruthenium red, 5 µM fluo-3, pH 7.0. The free calcium was adjusted to 0.1 µM or to 0.04 µM by CaCl2. The reaction was initiated by adding ATP (5 mM). The final reaction volume was 1.5 ml. The fluorescence of reaction mixture was measured for 3 min by using the excitation and emission wavelengths of 510 nm and 530 nm, respectively.

The subject of assay [2] is coronary arteries. Kind of assay: Coronary flow in isolated paced heart (Langendorff, constant pressure). Set-up: species or system guinea-pig. Conditions: Cavia porcellus; for Emax at 30 µM / Emax at 10 µM / Emax at 3 µM: read-out: Maximum effect (% change from baseline) on the coronary flow; for EC50: isolated heart, constant pressure 50 mmHg, paced at 250 beats/min. How it is done:
Guinea-pigs of either sex weighing 300-400 g were used in the study. After the guinea-pig was sacrificed by a blow on the skull and decapitated the heart was rapidly excised. The heart was then rinsed in cold oxygenated perfusion buffer. A cannula was inserted into the aorta and secured with a ligature. Retrograde perfusion began as soon as the heart was placed in a thermostatically controlled moist chamber of the Langendorff apparatus. Modified Tyrode solution (37 °C), equilibrated in a thermostatically controlled bulb oxygenator with carbogen (95 % O2 and 5% CO2) was used as a perfusion buffer. The composition of the Tyrode solution was (in mM): NaCl 135; MgCl2 x 6H2O 1; KCl 5; CaCl2 x 2H2O 2; NaHCO3 15; Na2HPO4 x 2H2O 1; glucose 10; pH 7.3-7.4. The experiments were carried out under constant pressure condition (50 mmHg). After a short prestabilization (10 min) a latex balloon (size 4) was carefully placed into the left ventricle through the left pulmonary vein and the left atrium. The latex balloon was attached to a stainless-steel cannula coupled with a pressure transducer. The latex balloon, the cannula and the chamber of the pressure transducer were filled with ethylene glycol / water (1:1) mixture avoiding any air-bubble. The isovolumetric left ventricular pressure was recorded through the pressure transducer. The maximal positive and negative derivatives of the left ventricular pressure were calculated by using the digitized pressure signals. At the beginning of the experiment, the volume of the balloon was adjusted to obtain a diastolic pressure of approximately 5 mmHg. Coronary flow (ml/min) was continuously recorded by an electromagnetic flow meter with a flow probe inserted above the aortic cannula. The heart was paced at 250 beats/min with a coaxial electrode localized on the surface of the right atrium. Before starting the experiment, the heart was allowed to stabilise further for 30 - 50 min with vehicle (0.1% DMSO) to reach a stable coronary flow.
After 15 min baseline recording various concentrations of the test compound of Example 1c were added to the perfusion buffer at 15 min intervals. The concentration range of 0.3 - 30 µM was tested. The vehicle concentration (0.1% DMSO) was kept constant throughout the experiment.

Assay [3] has as its target T1, phospholamban (Cavia porcellus, UniProt A0A286XLC6).
T1 construct: calcium uptake into the SR vesicles prepared from cardiac tissue; from tissue; host or cells: guinea-pig heart (ventricular myocardium), SR vesicle preparation
T1 sequence (A0A286XLC6 1-52): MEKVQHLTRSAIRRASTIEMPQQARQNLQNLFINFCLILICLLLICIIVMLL
Kind of assay: Calcium uptake assay (fluo-3) in SR vesicles from cardiac tissue. In kind it is biochemical, guinea-pig. Conditions: vesicles from ventricular myocardium, 0.1 µM free calcium, read-out: The stimulation (%) of Ca^2+ uptake A; for activation at 100 µM: 100 µM compound; for activation at 10 µM: 10 µM compound.
Source text: as §1, §2, §3, §4, §5

The structures appear in SMILES notation.

Consider `Cc1c(Cc2ccccc2)c(=O)oc2cc(OCc3noc(=O)[nH]3)cc(OCc3noc(=O)[nH]3)c12` [Example 3c, 3-Benzyl-5,7-bis[(2,5-dihydro-5-oxo-4H-1,2,4-oxadiazol-3-yl)-methoxy]-4-methyl-2H-1-benzopyran-2-one], for which the “The stimulation (%) of Ca^2+ uptake B” value in assay [1] (20 µM compound) was 0%. Besides, in assay [2], the Emax at 30 µM was found to be 174% and the EC50 (in general, the concentration giving half of the maximal effect) was found to be 5 µM. Besides, the activation at 20 µM in assay [3] (20 µM compound) worked out at 51%.
As for `Cc1c(CCc2ccccc2)c(=O)oc2cc(OCc3nnn[nH]3)cc(OCc3nnn[nH]3)c12` [Example 7c, 5,7-Bis[(1H-tetrazol-5-yl)methoxy]-4-methyl-3-(2-phenylethyl)-2H-1benzopyran-2-one], the “The stimulation (%) of Ca^2+ uptake B” value in assay [1] (100 µM compound) was -17%. Further, the activation at 100 µM in assay [3] is 5%.
Consider `Cc1c(Cc2ccccc2)c(=O)n(Cc2ccccc2)c2cc(OCC(N)=O)cc(OCC(N)=O)c12` [Example 21, 5,7-Bis(aminocarbonylmethoxy)-1,3-dibenzyl-4-methyl-2(1H)-quinolinone], for which, in assay [2], the Emax at 10 µM worked out at 141% and the EC50 came out at 2 µM. Besides, the activation at 100 µM in assay [3] was 11%.
Take `Cc1c(Cc2ccccc2)c(=O)n(Cc2ccccc2)c2cc(OCc3nnn[nH]3)cc(OCc3nnn[nH]3)c12` [Example 8g, 5,7-Bis[(1H-tetrazol-5-yl)methoxy]-1,3-dibenzyl-4-methyl-2(1H)-quinolinone]: in assay [1] (10 µM compound), the “The stimulation (%) of Ca^2+ uptake B” value was 0%. In assay [2], the Emax at 10 µM was found to be 100% and a half-maximal effect (EC50) was put at 1 µM. In assay [3], the activation at 10 µM came out at 18%.
Turning to `O=c1oc2cc(OCc3nnn[nH]3)cc(OCc3nnn[nH]3)c2c2c1C(c1ccccc1)CCC2` (centres unmarked) [Example 2c, 7,8,9,10-Tetrahydro-1,3-bis[(1H -tetrazol-5-yl)methoxy]-7-phenyl-6H-dibenzo[b,d]pyran-6-one], the “The stimulation (%) of Ca^2+ uptake B” value in assay [1] (100 µM compound) was -1%. Moreover, the activation at 100 µM in assay [3] came out at 26%.
For `Cc1c(Cc2ccccc2)c(=O)n(Cc2ccccc2)c2cc(OCC(=O)O)cc(OCC(=O)O)c12` [Example 12, 5,7-Bis(carboxymethoxy)-1,3-dibenzyl-4-methyl-2(1H)-quinolinone], in assay [2], the Emax at 10 µM was 60% and a half-maximal effect (EC50) was put at 5 µM. The activation at 100 µM in assay [3] is 32%.
Regarding `O=c1cc(-c2ccccc2)c2c(OCc3nnn[nH]3)cc(OCc3nnn[nH]3)cc2o1` [Example 5c, 5,7-Bis[(1H-tetrazol-5-yl)methoxy]-4-phenyl-2H-1-benzopyran-2-one], in assay [2], the Emax at 30 µM amounted to 52% and the EC50 was greater than 10 µM.
With `Cc1cc(=O)n(Cc2ccccc2)c2cc(OCc3nnn[nH]3)cc(OCc3nnn[nH]3)c12` [Example 18e, 1-Benzyl-5,7-bis-[(1H-tetrazol-5-yl)methoxy]-4-methyl-2(1H)-quinolinone], in assay [2], the Emax at 30 µM was 69% and the concentration giving a half-maximal response (EC50) is 5 µM. The activation at 100 µM in assay [3] amounted to 13%.
For the compound `Cc1c(Cc2ccccc2)c(=O)n(Cc2ccc(F)cc2)c2cc(OCc3nnn[nH]3)cc(OCc3nnn[nH]3)c12` [Example 13d], in assay [2], the Emax at 30 µM worked out at 104% and the response was half-maximal at 6 µM (EC50). For the same compound, in assay [3] (50 µM compound), the activation at 50 µM is 23%.
As to `Cc1c(Cc2ccccc2)c(=O)n(Cc2ccccc2)c2cc(OCC(=O)NO)cc(OCC(=O)NO)c12` [Example 23, 5,7-Bis(hydroxyaminocarbonylmethoxy)-1,3-dibenzyl-4-methyl-2(1H)-quinolinone], in assay [2], the Emax at 3 µM worked out at 55% and it took 0.9 µM to reach a half-maximal effect (EC50). For the same compound, in assay [3] (5 µM compound), the activation at 5 µM worked out at 20%.
`Cc1c(Cc2ccccc2)c(=O)oc2cc(OC(C)c3nnn[nH]3)cc(OC(C)c3nnn[nH]3)c12` (centres unmarked) [Example 11b, 3-Benzyl-5,7-bis[1-(1H-tetrazol-5-yl)ethoxy]4-methyl-2 H-1-benzopyran-2-one]: in assay [2], the Emax at 3 µM is 38% and the EC50 was 1 µM. Also, the activation at 100 µM in assay [3] was 28%.
As for `Cc1c(Cc2ccc(Cl)cc2)c(=O)oc2cc(OCc3nnn[nH]3)cc(OCc3nnn[nH]3)c12` [Example 14c, 5,7-Bis[(1H-tetrazol-5-yl)methoxy]-3-(4-chlorobenzyl)-4-methyl-2H-1-benzopyran-2-one], in assay [2], the Emax at 10 µM was determined as 112% and the EC50 is 1.5 µM. In addition, the activation at 10 µM in assay [3] was found to be 18%.
